20 molecules from ChEMBL document CHEMBL1132322, “Paullones, a series of cyclin-dependent kinase inhibitors: synthesis, evaluation of CDK1/cyclin B inhibition, and in vitro antitumor activity” (J Med Chem, 1999) can be followed below.

Test in all cases: cells
Assay [1] relates to Tumor Cell line. The note with it: Homo sapiens, read-out: Log GI50 (converted).
Assay [2] relates to HCT-116. It is filed as functional. The note with it: Homo sapiens.
Description: The logarithmic molar concentration inhibiting 50% net cell growth was measured on HCT116 (M) colon cancer cell lines.
For assay [3], the system named is Tumor Cell line. The note with it: Homo sapiens, read-out: Log GI50 (converted). This is another data set of the same source.
Assay [4] relates to Tumor Cell line. It is filed as functional. The note with it: Homo sapiens.
Assay [5] concerns HCT-116. It is filed as functional. To be noted: Homo sapiens. The source holds these as a separate data set.
Description: The logarithmic molar concentration inhibiting 50% net cell growth was measured on HCT116 (M)colon cancer cell lines (in experiment 2)
The subject of assay [6] is HCT-116. It is filed as functional. The note with it: Homo sapiens. This is another data set of the same source.
Description: The logarithmic molar concentration inhibiting 50% net cell growth was measured on HCT116 (M)colon cancer cell lines (in experiment 1)

Structures are written as SMILES. Where only a bound is given, the exact number is not on record here.

One may read the GI50 as the concentration giving 50% growth inhibition. As for `O=C1Cc2c([nH]c3ccc(Br)cc23)-c2ccccc2N1Cc1ccccc1` [PAULLONE], the 50% growth inhibitory concentration (GI50) is 100 µM in the assay with Tumor Cell line [1], 20 µM in the assay on HCT-116 [2] and 31.6 µM in the assay on Tumor Cell line [3].
Consider `O=C1Cc2c([nH]c3cc(Br)ccc23)-c2ccccc2N1`, for which the GI50 in the assay on Tumor Cell line [4] was 15.8 µM; with HCT-116 [2], 3.16 µM.
As for `CCN1C(=O)Cc2c([nH]c3ccc(Br)cc23)-c2ccccc21`, the GI50 in the assay on HCT-116 [5] is 12.6 µM; in the assay on Tumor Cell line [1], 12.6 µM; with Tumor Cell line [3] it was 25.1 µM; in the assay on HCT-116 [6], more than 100 µM.
Turning to `O=C1Cc2c([nH]c3ccc([N+](=O)[O-])cc23)-c2ccccc2N1` [ALSTERPAULLONE], the GI50 in the assay with Tumor Cell line [1] was 0.316 µM; in the assay with Tumor Cell line [3], 0.398 µM.
Take `O=C1Cc2c([nH]c3c(Cl)cccc23)-c2ccccc2N1`: the GI50 in the assay on Tumor Cell line [4] was 100 µM; in the assay on HCT-116 [2], more than 100 µM.
The matching figures for `CCc1cccc2c3c([nH]c12)-c1ccccc1NC(=O)C3`: 63.1 µM and 79.4 µM.
For `N#Cc1ccc2[nH]c3c(c2c1)CC(=O)Nc1ccccc1-3` [PAULLONE 2], in that order: 79.4 µM and 20 µM.
In turn, `O=C1Cc2c([nH]c3ccc(Br)cc23)-c2cc(Br)ccc2N1` had a GI50 in the assay on Tumor Cell line [4] of 100 µM.
`O=C1Cc2c([nH]c3ccc(Br)cc23)-c2cc(O)c(O)cc2N1` gave a GI50 in the assay with Tumor Cell line [4] of 100 µM.
`COc1cccc2c1NC(=O)Cc1c-2[nH]c2ccccc12` gave a GI50 in the assay on Tumor Cell line [4] of 79.4 µM.
`O=C1Cc2c([nH]c3ccc(Br)cc23)-c2ccccc2N1` [KENPAULLONE] gave a GI50 in the assay with Tumor Cell line [4] of 39.8 µM.
In the case of `CN1C(=O)Cc2c([nH]c3ccc(Br)cc23)-c2ccccc21`, in the assay on Tumor Cell line [3], the GI50 was 31.6 µM.
For the molecule `COC(=O)CN1C(=O)Cc2c([nH]c3ccc(Br)cc23)-c2ccccc21`, the GI50 in the assay on Tumor Cell line [1] is 31.6 µM.
For the molecule `O=C1Cc2c([nH]c3ccccc23)-c2ccccc2N1` [PAULLONE], the values for the GI50 with Tumor Cell line [4] and with HCT-116 [2] were 31.6 µM and 15.8 µM, respectively.
In the case of `O=C1Cc2c([nH]c3ccc(Cl)cc23)-c2ccccc2N1`, the GI50 in the assay with Tumor Cell line [4] is 79.4 µM; with HCT-116 [2] it was 3.16 µM.
The matching figures for `O=C1Cc2c([nH]c3ccccc23)-c2cc(Br)ccc2N1`: 100 µM and more than 100 µM.
As for `O=C1Cc2c([nH]c3c(Br)cccc23)-c2ccccc2N1`, it took 50.1 µM to inhibit growth in the assay on Tumor Cell line [4] by half (GI50).
In the assay with HCT-116 [5], `CSC1=Nc2ccccc2-c2[nH]c3ccc(Br)cc3c2C1` gave a GI50 of 1.58 µM.
Turning to `ONC1=Nc2ccccc2-c2[nH]c3ccc(Br)cc3c2C1`, the GI50 is 10 µM in the assay on Tumor Cell line [4] and 6.31 µM in the assay on HCT-116 [2].
The matching figures for `CN1CCC(c2c(O)cc(O)c3c(=O)cc(-c4ccccc4Cl)oc23)[C@@H](O)C1` (stereo not given in full): 0.0631 µM and 0.0251 µM.
